Reference: patent US10287228B2, “Antimalarial agent, methods and uses thereof” (UNIVERSIDADE DO PORTO, priority 2015, dated 2019)
Like-named read-outs stand apart in the source and are kept apart here.

Tests used:
[1] = test system: HT-29 colon adenocarcinoma human cells; settings: cited from earlier work
[2] = test system: P. falciparum 3D7 strain; assay: SYBR Green I antimalarial activity, P. falciparum 3D7; format: cell-based, Plasmodium falciparum; settings: read-out: IC50 P. faldparum 3D7
Procedure: (§1) In an embodiment, hierridin B and hierridin C were tested for in vitro activity towards the P. falciparum strains, in particular P. falciparum 3D7 strain and the multidrug-resistant Dd2 strain to verify whether the chlorine atom featured in hierridin C affects the activity of the compound, in particular the antimalarial activity.
In an embodiment, the laboratory-adapted P. falciparum 3D7 and Dd2 strains were cultivated on human erythrocytes suspended in RPMI 1640 medium supplemented with 25 mM HEPES, 6.8 mM hypoxanthine and 10% AlbuMAX II (Life Technologies, Carlsbad, Calif., USA), at pH 7.2. […] Staging and parasitaemia were determined by light microscopy of Giemsa-stained thin blood smears.
(§2) In an embodiment, the antimalarial activities of hierridin B and hierridin C were determined using the SYBR Green I (Life Technologies). Early ring stage parasites were tested in triplicate in a 96-well plate and incubated with drugs for 48 h (37° C., 5% CO2), parasite growth was assessed with SYBR Green I. Each compound was tested in a concentration ranging from 10-0.0097 μM (0.2% DMSO). Fluorescence intensity was measured with a multi-mode microplate reader (Triad, Dynex, Chantilly, Va., USA) with excitation and emission wavelengths of 485 nm and 535 nm, respectively, and analyzed by nonlinear regression using GraphPad Prism 5 (GraphPad Software, La Jolla, Calif., USA).

[3] = test system: P. falciparum multidrug-resistant Dd2 strain; assay: microbe, parasite or virus in culture; format: cell-based, Plasmodium falciparum
Procedure: as §1
In an embodiment, the laboratory-adapted P. falciparum 3D7 and Dd2 strains were cultivated on human erythrocytes suspended in RPMI 1640 medium supplemented with 25 mM HEPES, 6.8 mM hypoxanthine and 10% AlbuMAX II (Life Technologies, Carlsbad, Calif., USA), at pH 7.2. Cultures were maintained at 37° C. under an atmosphere of 5% O2, 3-5% CO2 and N2, and synchronized by sorbitol treatment prior to the assays. Staging and parasitaemia were determined by light microscopy of Giemsa-stained thin blood smears.
as §2

[4] = test system: neuroblastoma SH-SY5Y; assay: Cytotoxicity, cell lines exposed to hierridin C; format: cell-based; settings: up to 30 μg mL−1 (75.2 μM)
Procedure: (§3) In an embodiment, several cell lines were exposed to hierridin C, in particular to a concentration of hierridin C up to 30 μg mL^−1 (75.2 μM). The cell lines exposed to hierridin C, were in particular the cell lines of hepatocellular carcinoma HepG2, colon adenocarcinoma HT-29, neuroblastoma SH-SY5Y, breast carcinoma T47D, normal prostate cell line PNT2, breast adenocarcinoma, RKO colon carcinoma and MG-63 osteosarcoma.

[5] = test system: MG-63 osteosarcoma; assay: Cytotoxicity, cell lines exposed to hierridin C; format: cell-based; settings: MG-63, up to 30 μg mL−1 (75.2 μM)
Procedure: as §3

[6] = test system: normal prostate cell line PNT2; assay: Cytotoxicity, cell lines exposed to hierridin C; format: cell-based; settings: PNT2, up to 30 μg mL−1 (75.2 μM)
Procedure: as §3

[7] = test system: breast carcinoma T47D; assay: Cytotoxicity, cell lines exposed to hierridin C; format: cell-based; settings: up to 30 μg mL−1 (75.2 μM)
Procedure: as §3

[8] = test system: hepatocellular carcinoma HepG2; assay: Cytotoxicity, cell lines exposed to hierridin C; format: cell-based; settings: HepG2, up to 30 μg mL−1 (75.2 μM)
Procedure: as §3

[9] = test system: RKO colon carcinoma; assay: Cytotoxicity, cell lines exposed to hierridin C; format: cell-based; settings: up to 30 μg mL−1 (75.2 μM)
Procedure: as §3

[10] = test system: breast adenocarcinoma; assay: Cytotoxicity, cell lines exposed to hierridin C; format: cell-based; settings: up to 30 μg mL−1 (75.2 μM)
Procedure: as §3

[11] = test system: colon adenocarcinoma HT-29; assay: Cytotoxicity, cell lines exposed to hierridin C; format: cell-based, human; settings: HT-29, up to 30 μg mL−1 (75.2 μM)
Procedure: as §3

Row | SMILES | cytotoxicity towards HT-29 [1] | IC50 ([2]; 3D7 strain (sensitive to chloroquine), 48 h incubation, SYBR Green I) [nM] | IC50 ([3]; Dd2 strain (resistant to chloroquine and mefloquine), 48 h incubation, SYBR Green I, read-out: IC50 P. faldparum Dd2) [nM] | cytotoxicity [4] | cytotoxicity [5] | cytotoxicity [6] | cytotoxicity [7] | cytotoxicity [8] | cytotoxicity [9] | cytotoxicity [10] | IC50 ([2]; Plasmodium falciparum, 3D7, 48 h) [nM] | Resistance indices (RI) ([3]; Dd2 versus 3D7) | IC50 ([3]; Plasmodium falciparum, DD2, 48 h, read-out: IC50 P. faldparum Dd2) [nM] | IC50 ([3]; Plasmodium falciparum, DD2, read-out: IC50 in P. falciparum strains) [nM] | therapeutical index ([3]; relative to IC50 in P. falciparum strains) | cytotoxicity [11]
1 | CCCCCCCCCCCCCCCc1cc(OC)cc(OC)c1O [Hierridin B, reference compound] | modest, selective cytotoxicity | 2090 ± 80 | 2250 ± 670 | – | – | – | – | – | – | – | – | – | – | – | – | –
2 | CCCCCCCCCCCCCCCc1c(O)c(OC)cc(OC)c1Cl [Hierridin C, 3-chloro-4,6-dimethoxy-2-pentadecylphenol] | – | – | – | No cytotoxicity was observed | No cytotoxicity was observed | No cytotoxicity was observed | No cytotoxicity was observed | No cytotoxicity was observed | No cytotoxicity was observed | No cytotoxicity was observed | 1520 ± 50 | 0.93 | 2310 ± 110 | ~2000 | >= 50 | No cytotoxicity was observed
